Each structure is given as a SMILES string. Read-outs that look alike come from different tables or passages of the source.

For this experiment, the target named is IKZF2 (Helios) (Homo sapiens, UniProt Q96SW2+Q9UKS7). The experiment can be described thus: Prolabel quantification of IKZF2 protein levels in 293GT cells. The class given is cell-based. The conditions noted are these: for IKZF2 % protein reduction at 10 µM: 24 h, read-out: IKZF2 % protein reduction at 10 μM, 24 h.
[1] abbreviates: Pro-label assay, 293GT cells, 10 μM.

IKZF2 (Helios), sequence (Q9UKS7 whole entry): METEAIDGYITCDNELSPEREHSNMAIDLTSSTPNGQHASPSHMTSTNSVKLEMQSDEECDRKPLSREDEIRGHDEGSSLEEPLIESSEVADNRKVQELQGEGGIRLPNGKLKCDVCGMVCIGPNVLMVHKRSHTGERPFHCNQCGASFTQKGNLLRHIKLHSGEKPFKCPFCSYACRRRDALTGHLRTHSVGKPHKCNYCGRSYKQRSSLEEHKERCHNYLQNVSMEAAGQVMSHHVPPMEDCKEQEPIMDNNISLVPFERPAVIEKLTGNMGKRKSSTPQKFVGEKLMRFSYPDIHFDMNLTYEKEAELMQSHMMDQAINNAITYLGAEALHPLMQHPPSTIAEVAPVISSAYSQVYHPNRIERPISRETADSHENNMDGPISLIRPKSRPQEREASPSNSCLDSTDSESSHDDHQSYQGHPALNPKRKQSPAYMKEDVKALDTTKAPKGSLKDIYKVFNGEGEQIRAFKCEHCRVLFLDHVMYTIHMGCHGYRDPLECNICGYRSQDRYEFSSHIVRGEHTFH
IKZF2 (Helios), sequence (Q96SW2 whole entry): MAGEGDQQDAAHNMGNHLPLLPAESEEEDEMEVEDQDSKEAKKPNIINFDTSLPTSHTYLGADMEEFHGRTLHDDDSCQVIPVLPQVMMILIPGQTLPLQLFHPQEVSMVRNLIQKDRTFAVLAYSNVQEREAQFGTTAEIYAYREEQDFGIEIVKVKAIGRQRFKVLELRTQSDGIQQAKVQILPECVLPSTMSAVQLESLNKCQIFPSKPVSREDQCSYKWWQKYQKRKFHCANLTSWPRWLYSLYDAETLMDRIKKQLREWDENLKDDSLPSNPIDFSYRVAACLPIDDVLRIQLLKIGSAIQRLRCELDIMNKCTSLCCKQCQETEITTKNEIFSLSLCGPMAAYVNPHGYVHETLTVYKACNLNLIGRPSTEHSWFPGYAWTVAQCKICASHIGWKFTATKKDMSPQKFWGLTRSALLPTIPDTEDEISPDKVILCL
IKZF2 (Helios), sequence (Q16531 whole entry partner): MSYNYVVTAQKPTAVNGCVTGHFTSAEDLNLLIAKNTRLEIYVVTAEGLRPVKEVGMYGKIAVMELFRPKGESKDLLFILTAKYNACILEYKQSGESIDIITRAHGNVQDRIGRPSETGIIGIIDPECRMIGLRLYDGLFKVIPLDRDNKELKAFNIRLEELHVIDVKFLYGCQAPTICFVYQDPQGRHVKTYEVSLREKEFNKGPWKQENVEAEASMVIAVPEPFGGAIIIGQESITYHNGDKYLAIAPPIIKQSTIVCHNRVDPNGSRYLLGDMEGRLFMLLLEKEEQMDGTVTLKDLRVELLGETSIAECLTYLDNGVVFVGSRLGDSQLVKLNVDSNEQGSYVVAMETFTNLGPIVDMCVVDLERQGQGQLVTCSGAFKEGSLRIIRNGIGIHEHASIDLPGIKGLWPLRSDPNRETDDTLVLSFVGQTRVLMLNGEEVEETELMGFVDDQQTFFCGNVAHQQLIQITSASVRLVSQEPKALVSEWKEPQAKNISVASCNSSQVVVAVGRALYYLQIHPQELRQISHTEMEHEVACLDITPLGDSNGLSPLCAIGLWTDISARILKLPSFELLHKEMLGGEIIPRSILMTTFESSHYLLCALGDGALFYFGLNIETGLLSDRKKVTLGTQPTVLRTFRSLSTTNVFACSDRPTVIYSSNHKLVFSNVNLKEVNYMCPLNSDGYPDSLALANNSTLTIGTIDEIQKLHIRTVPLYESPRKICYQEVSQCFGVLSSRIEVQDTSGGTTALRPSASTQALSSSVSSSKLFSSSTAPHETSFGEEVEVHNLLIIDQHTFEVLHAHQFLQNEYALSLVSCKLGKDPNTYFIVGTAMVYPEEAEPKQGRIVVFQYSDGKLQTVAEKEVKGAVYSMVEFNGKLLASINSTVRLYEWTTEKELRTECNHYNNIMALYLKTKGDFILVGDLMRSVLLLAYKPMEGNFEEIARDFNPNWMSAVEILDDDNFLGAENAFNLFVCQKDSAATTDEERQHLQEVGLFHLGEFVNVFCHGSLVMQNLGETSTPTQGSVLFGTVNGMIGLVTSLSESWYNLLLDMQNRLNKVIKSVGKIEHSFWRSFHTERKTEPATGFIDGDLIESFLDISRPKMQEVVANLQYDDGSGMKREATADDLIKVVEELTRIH

With `CO[C@H]1CC[C@H](CN[C@H]2CCCC[C@@H]2Oc2ccc3c(c2)CN(C2CCC(=O)NC2=O)C3=O)CC1` (stereo partly drawn) [I-101, 3-(5-(((1S,2S)-2-((((1r,4S)-4-methoxycyclohexyl)methyl)amino)cyclohexyl)oxy)-1-oxoisoindolin-2-yl)piperidine-2,6-dione], the IKZF2 % protein reduction at 10 µM under setting [1] was found to be 73%.
The same measure, in the same setting: in the case of `O=C1CCC(N2Cc3cc(O[C@H]4CCCC[C@@H]4NCC4COC4)ccc3C2=O)C(=O)N1` (stereo partly drawn) [I-81, 3-(5-(((1S,2S)-2-((oxetan-3-ylmethyl)amino)cyclohexyl)oxy)-1-oxoisoindolin-2-yl)piperidine-2,6-dione] it was 85%; in that of `O=C1CCC(N2Cc3cc(OC4CCCC4N4CCCC5(CCC5)C4)ccc3C2=O)C(=O)N1` (single isomer, unassigned) [I-179, 3-(5-((2-(6-azaspiro[3.5]nonan-6-yl)cyclopentyl)oxy)-1-oxoisoindolin-2-yl)piperidine-2,6-dione], 85%; in that of `O=C1CCC(N2Cc3cc(O[C@H]4CCC[C@@H]4N4CC(Oc5ccccc5Cl)C4)ccc3C2=O)C(=O)N1` (stereo partly drawn) [I-177, 3-(5-(((1S,2S)-2-(3-(2-chlorophenoxy)azetidin-1-yl)cyclopentyl)oxy)-1-oxoisoindolin-2-yl)piperidine-2,6-dione], 92%.
Still for that read-out and setting: in the case of `O=C1CCC(N2Cc3cc(O[C@H]4CCCC[C@@H]4NC4CCC(F)(F)CC4)ccc3C2=O)C(=O)N1` (stereo partly drawn) [I-115, 3-(5-(((1S,2S)-2-((4,4-difluorocyclohexyl)amino)cyclohexyl)oxy)-1-oxoisoindolin-2-yl)piperidine-2,6-dione] it was 90%.
The same measure, in the same setting: in the case of `N#Cc1ccc(CN[C@H]2CCCC[C@@H]2Oc2ccc3c(c2)CN(C2CCC(=O)NC2=O)C3=O)cc1` (stereo partly drawn) [I-129, 4-((((1S,2S)-2-((2-(2,6-dioxopiperidin-3-yl)-1-oxoisoindolin-5-yl)oxy)cyclohexyl)amino)methyl)benzonitrile] it was 70%; in that of `CCN(CC)[C@H]1COC[C@@H]1Oc1ccc2c(c1)CN(C1CCC(=O)NC1=O)C2=O` (stereo partly drawn) [I-47, 3-(5-(((3R,4S)-4-(diethylamino)tetrahydrofuran-3-yl)oxy)-1-oxoisoindolin-2-yl)piperidine-2,6-dione], 11%; in that of `O=C1CCC(N2Cc3cc(O[C@H]4CCCC[C@@H]4NCc4cncnc4)ccc3C2=O)C(=O)N1` (stereo partly drawn) [I-103, 3-(1-oxo-5-(((1S,2S)-2-((pyrimidin-5-ylmethyl)amino)cyclohexyl)oxy)isoindolin-2-yl)piperidine-2,6-dione], 54%.
Regarding `CC1(C#N)CCN([C@H]2CCC[C@@H]2Oc2ccc3c(c2)CN(C2CCC(=O)NC2=O)C3=O)CC1` (stereo partly drawn) [I-38, 1-((1S,2S)-2-((2-(2,6-dioxopiperidin-3-yl)-1-oxoisoindolin-5-yl)oxy)cyclopentyl)-4-methylpiperidine-4-carbonitrile], the IKZF2 % protein reduction at 10 µM under setting [1] came to 86%.
On the same count and under the same terms, in the case of `COC1(C)CCN([C@H]2CCC[C@@H]2Oc2ccc3c(c2)CN(C2CCC(=O)NC2=O)C3=O)CC1` (stereo partly drawn) [I-152, 3-(5-(((1S,2S)-2-(4-methoxy-4-methylpiperidin-1-yl)cyclopentyl)oxy)-1-oxoisoindolin-2-yl)piperidine-2,6-dione] it was 82%; in that of `CCCN[C@H]1CCCCC[C@@H]1Oc1ccc2c(c1)CN(C1CCC(=O)NC1=O)C2=O` (stereo partly drawn) [I-62, 3-(1-oxo-5-(((1S,2S)-2-(propylamino)cycloheptyl)oxy)isoindolin-2-yl)piperidine-2,6-dione], 88%.
Same read-out and setting: in the case of `CCN(C(C)C)[C@H]1CCC[C@@H]1Oc1ccc2c(c1)CN(C1CCC(=O)NC1=O)C2=O` (stereo partly drawn) [I-25, 3-(5-(((1S,2S)-2-(ethyl(isopropyl)amino)cyclopentyl)oxy)-1-oxoisoindolin-2-yl)piperidine-2,6-dione] it was 80%; in that of `CC1(C)CCCN([C@H]2CCC[C@@H]2Oc2ccc3c(c2)CN(C2CCC(=O)NC2=O)C3=O)C1` (single isomer, unassigned) [I-168], 83%.
For `N[C@H]1c2ccccc2C[C@@H]1Oc1ccc2c(c1)CN(C1CCC(=O)NC1=O)C2=O` (stereo partly drawn) [I-197, 3-(5-(((1S,2S)-1-amino-2,3-dihydro-1H-inden-2-yl)oxy)-1-oxoisoindolin-2-yl)piperidine-2,6-dione], the IKZF2 % protein reduction at 10 µM came out at 68%.
On to `CO[C@H]1CCC[C@@H]1N[C@H]1CCCC[C@@H]1Oc1ccc2c(c1)CN(C1CCC(=O)NC1=O)C2=O` (single isomer, unassigned) [I-119], for which the IKZF2 % protein reduction at 10 µM under setting [1] was found to be 59%.
For `CCN(CC)[C@@H]1CCC[C@@H]1Oc1ccc2c(c1)CN(C1CCC(=O)NC1=O)C2=O` (stereo partly drawn) [I-10, 3-(5-(((1S,2R)-2-(diethylamino)cyclopentyl)oxy)-1-oxoisoindolin-2-yl)piperidine-2,6-dione], the IKZF2 % protein reduction at 10 µM under setting [1] was 0%.
The same measure, in the same setting: next, `O=C1CCC(N2Cc3cc(O[C@H]4CCCC[C@@H]4N4CCOCC4)ccc3C2=O)C(=O)N1` (stereo partly drawn) [I-84, 3-(5-(((1S,2S)-2-morpholinocyclohexyl)oxy)-1-oxoisoindolin-2-yl)piperidine-2,6-dione]: 35%; `O=C1CCC(N2Cc3cc(O[C@H]4CCCC[C@@H]4N4CCCC4)ccc3C2=O)C(=O)N1` (stereo partly drawn) [I-83, 3-(1-oxo-5-(((1S,2S)-2-(pyrrolidin-1-yl)cyclohexyl)oxy)isoindolin-2-yl)piperidine-2,6-dione]: 86%; `O=C1CCC(N2Cc3cc(O[C@H]4CCCC[C@@H]4NCCC4CCOCC4)ccc3C2=O)C(=O)N1` (stereo partly drawn) [I-104, 3-(1-oxo-5-(((1S,2S)-2-((2-(tetrahydro-2H-pyran-4-yl)ethyl)amino)cyclohexyl)oxy)isoindolin-2-yl)piperidine-2,6-dione]: 87%.
On to `CC(C)OC1CCN([C@H]2CCC[C@@H]2Oc2ccc3c(c2)CN(C2CCC(=O)NC2=O)C3=O)CC1` (stereo partly drawn) [I-187, 3-(5-(((1S,2S)-2-(4-isopropoxypiperidin-1-yl)cyclopentyl)oxy)-1-oxoisoindolin-2-yl)piperidine-2,6-dione], for which the IKZF2 % protein reduction at 10 µM stood at 79%.
As for `COc1ccc(CN[C@H]2CCCC[C@@H]2Oc2ccc3c(c2)CN(C2CCC(=O)NC2=O)C3=O)nc1` (stereo partly drawn) [I-91, 3-(5-(((1S,2S)-2-(((5-methoxypyridin-2-yl)methyl)amino)cyclohexyl)oxy)-1-oxoisoindolin-2-yl)piperidine-2,6-dione], under setting [1], the IKZF2 % protein reduction at 10 µM is 58%.
`O=C1CCC(N2Cc3cc(O[C@H]4CCC[C@@H]4N4CC5CCC(C4)O5)ccc3C2=O)C(=O)N1` (stereo partly drawn) [I-18, 3-(5-(((1S,2S)-2-(8-oxa-3-azabicyclo[3.2.1]octan-3-yl)cyclopentyl)oxy)-1-oxoisoindolin-2-yl)piperidine-2,6-dione]: the IKZF2 % protein reduction at 10 µM under setting [1] was determined as 50%.
As to `CCN[C@H]1CCCC[C@@H]1Oc1ccc2c(c1)CN(C1CCC(=O)NC1=O)C2=O` (stereo partly drawn) [I-79, 3-(5-(((1S,2S)-2-(ethylamino)cyclohexyl)oxy)-1-oxoisoindolin-2-yl)piperidine-2,6-dione], the IKZF2 % protein reduction at 10 µM under setting [1] was determined as 85%.
On the same count and under the same terms, in the case of `CO[C@H]1CC[C@H](CN[C@H]2CCCCC[C@@H]2Oc2ccc3c(c2)CN(C2CCC(=O)NC2=O)C3=O)CC1` (stereo partly drawn) [I-64, 3-(5-(((1S,2S)-2-((((1r,4S)-4-methoxycyclohexyl)methyl)amino)cycloheptyl)oxy)-1-oxoisoindolin-2-yl)piperidine-2,6-dione] it was 84%; in that of `O=C1CCC(N2Cc3cc(O[C@H]4CCCC[C@@H]4O)ccc3C2=O)C(=O)N1` (stereo partly drawn) [I-27, 3-(5-(((1S,2S)-2-hydroxycyclohexyl)oxy)-1-oxoisoindolin-2-yl)piperidine-2,6-dione], 50%; in that of `N#CC1(CN[C@H]2CCCC[C@@H]2Oc2ccc3c(c2)CN(C2CCC(=O)NC2=O)C3=O)CCC1` (stereo partly drawn) [I-111, 1-((((1S,2S)-2-((2-(2,6-dioxopiperidin-3-yl)-1-oxoisoindolin-5-yl)oxy)cyclohexyl)amino)methyl)cyclobutane-1-carbonitrile], 59%.
`CCN(CC)[C@H]1CCC[C@@H]1Oc1ccc2c(c1F)CN(C1CCC(=O)NC1=O)C2=O` (stereo partly drawn) [I-214, 3-(5-(((1S,2S)-2-(diethylamino)cyclopentyl)oxy)-4-fluoro-1-oxoisoindolin-2-yl)piperidine-2,6-dione]: the IKZF2 % protein reduction at 10 µM under setting [1] amounted to 40%.
On to `O=C1CCC(N2Cc3cc(O[C@H]4CCC[C@@H]4N4Cc5ccncc5C4)ccc3C2=O)C(=O)N1` (stereo partly drawn) [I-196, 3-(5-(((1S,2S)-2-(1,3-dihydro-2H-pyrrolo[3,4-c]pyridin-2-yl)cyclopentyl)oxy)-1-oxoisoindolin-2-yl)piperidine-2,6-dione], for which the IKZF2 % protein reduction at 10 µM under setting [1] was found to be 68%.
For `O=C1CCC(N2Cc3cc(O[C@H]4CCC[C@@H]4N4CCC(OC(F)F)CC4)ccc3C2=O)C(=O)N1` (stereo partly drawn) [I-195, 3-(5-(((1S,2S)-2-(4-(difluoromethoxy)piperidin-1-yl)cyclopentyl)oxy)-1-oxoisoindolin-2-yl)piperidine-2,6-dione], the IKZF2 % protein reduction at 10 µM was determined as 85%.
Regarding `CCN(CC)[C@@H]1CCC[C@H]1Oc1ccc2c(c1)CN(C1CCC(=O)NC1=O)C2=O` (stereo partly drawn) [I-43, 3-(5-(((1R,2R)-2-(diethylamino)cyclopentyl)oxy)-1-oxoisoindolin-2-yl)piperidine-2,6-dione], the IKZF2 % protein reduction at 10 µM under setting [1] was found to be 0%.
Regarding `COc1ccccc1OC1CN([C@H]2CCC[C@@H]2Oc2ccc3c(c2)CN(C2CCC(=O)NC2=O)C3=O)C1` (stereo partly drawn) [I-178, 3-(5-(((1S,2S)-2-(3-(2-methoxyphenoxy)azetidin-1-yl)cyclopentyl)oxy)-1-oxoisoindolin-2-yl)piperidine-2,6-dione], the IKZF2 % protein reduction at 10 µM under setting [1] worked out at 92%.
`CCN(CC1CC(C)(C#N)C1)C1CCCC1Oc1ccc2c(c1)CN(C1CCC(=O)NC1=O)C2=O` (single isomer, unassigned) [I-165]: the “IKZF2 % protein reduction at 10 μM, 24 h” value under setting [1] was 72%.
`N[C@H]1CCC[C@@H]1Oc1ccc2c(c1F)CN(C1CCC(=O)NC1=O)C2=O` (stereo partly drawn) [I-213, 3-(5-(((1S,2S)-2-aminocyclopentyl)oxy)-4-fluoro-1-oxoisoindolin-2-yl)piperidine-2,6-dione]: the IKZF2 % protein reduction at 10 µM under setting [1] was found to be 20%.
